Laboratory results from the Kinase Knowledgebase extract (Sharma et al. 2016).

Target: MAPK14 (human) (UniProt Q16539)
Assay: Inhibition of MAPK14 Kinase Activity

Chain of MAPK14 (human) (Q16539 whole entry, looked up): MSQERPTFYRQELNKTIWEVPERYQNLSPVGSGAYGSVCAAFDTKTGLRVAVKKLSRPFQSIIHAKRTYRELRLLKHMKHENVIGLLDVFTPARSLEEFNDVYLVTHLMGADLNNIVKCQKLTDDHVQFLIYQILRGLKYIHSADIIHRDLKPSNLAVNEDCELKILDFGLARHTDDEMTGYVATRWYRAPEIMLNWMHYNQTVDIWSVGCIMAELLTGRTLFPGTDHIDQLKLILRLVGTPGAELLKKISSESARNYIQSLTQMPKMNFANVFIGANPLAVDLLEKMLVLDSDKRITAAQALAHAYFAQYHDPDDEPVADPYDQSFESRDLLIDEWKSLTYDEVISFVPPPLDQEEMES

IC50, ≤ 1000 nM:
Cc1nc(-c2ccc(F)cc2)c(-c2nc(C(=O)NCC3(O)CCCCC3)cs2)s1
Cc1onc(-c2ccc(Cl)cc2)c1-c1ccn(C(=O)NC(C)CO)n1 (centres undefined)
COc1ccc([N+](=O)[O-])c(C(=O)NCc2nc(-c3ccc(F)cc3)c(-c3nc(C(=O)NC(C)C)cs3)o2)c1
COc1ccc(NC(=O)c2csc(-c3sc(C)nc3-c3ccc(F)cc3)n2)cc1OC
CC(C)NC(=O)c1csc(-c2c(-c3ccccc3)n[nH]c2C2CCN(C(=O)c3ccc(Cl)c([N+](=O)[O-])c3)CC2)n1
CCC(CO)NC(=O)c1csc(-c2c(-c3ccc(F)cc3)n[nH]c2C2CCNCC2)n1 (centres undefined)
Cc1cc(C(=O)NCc2nc(-c3ccc(F)cc3)c(-c3nc(C(=O)NC(C)C)cs3)o2)n[nH]1
CC(C)NC(=O)c1csc(-c2oc(CN3CCN(C(=O)c4cc([N+](=O)[O-])ccc4O)CC3)nc2-c2ccc(F)cc2)n1
Cc1c(C(=O)N2CCC(c3[nH]nc(-c4ccc(F)cc4)c3-c3nc(C(=O)NC(C)C)cs3)CC2)oc2ccccc12
Cc1nc(-c2ccc(F)cc2)c(-c2nc(C(=O)NC3CCC3)cs2)s1
O=C(NCc1cccnc1)c1csc(-c2c(-c3ccc(F)cc3)n[nH]c2C2CCN(C(=O)CO)CC2)n1
Cc1ccc(S(=O)(=O)NCCNCc2nc(-c3ccc(F)cc3)c(-c3nc(C(=O)NC(C)C)cs3)o2)cc1
Cc1nc(-c2ccc(F)cc2)c(-c2nc(C(=O)NCCc3cccc(Cl)c3)cs2)s1
CC(C)NC(=O)c1csc(-c2oc(CN3CCN(C(=O)c4ccc(OC(C)C)cc4)CC3)nc2-c2ccc(F)cc2)n1
CC(C)NC(=O)c1csc(-c2oc(CNC(=O)C=Cc3ccccc3F)nc2-c2ccc(F)cc2)n1
CC(C)NC(=O)c1csc(-c2oc(CNC(=O)c3ccc4ncccc4c3)nc2-c2ccc(F)cc2)n1
CC(C)NC(=O)c1csc(-c2c(-c3ccc(F)cc3)noc2CN(C)CCO)n1
CC(C)NC(=O)c1csc(-c2oc(CNC(=O)c3ncc[nH]3)nc2-c2ccc(F)cc2)n1
CCN(CC)CCNC(=O)c1csc(-c2sc(C)nc2-c2ccc(F)cc2)n1
CC(C)NC(=O)c1csc(-c2c(-c3ccc(F)cc3)n[nH]c2C2CCN(C(=O)C(C)(C)C)CC2)n1
CC(C)NC(=O)c1csc(-c2c(-c3ccc(F)cc3)noc2CN(C)CCc2ccccn2)n1
CC(C)NC(=O)c1csc(-c2oc(CNCCc3ccc(S(N)(=O)=O)cc3)nc2-c2ccc(F)cc2)n1
CC(C)NC(=O)c1csc(-c2[nH]c(CO)nc2-c2ccc(F)cc2)n1
COc1ccc(CNC(=O)c2csc(-c3sc(C)nc3-c3ccc(F)cc3)n2)cc1OC
COc1ccc(CNC(=O)c2csc(-c3c(-c4ccc(F)cc4)n[nH]c3C3CCNCC3)n2)cc1O
CC(C)NC(=O)c1csc(-c2oc(CNC(=O)c3cccc(C#N)c3)nc2-c2ccc(F)cc2)n1
Cc1cnc(CNC(=O)c2csc(-c3sc(C)nc3-c3ccc(F)cc3)n2)cn1
CC(C)NC(=O)c1csc(-c2c(-c3ccc(F)cc3)n[nH]c2C2CCN(C(=O)[C@H](C)O)CC2)n1
CC(C)NC(=O)c1csc(-c2oc(CN3CCN(C(=O)c4ccc(N(C)C=O)cc4)CC3)nc2-c2ccc(F)cc2)n1
CC(C)NC(=O)c1csc(-c2oc(CN3CCN(C(=O)c4ccccc4Cc4ccccc4)CC3)nc2-c2ccc(F)cc2)n1
CC(C)NC(=O)c1csc(-c2c(-c3ccc(F)cc3)n[nH]c2C2CCN(C(=O)C(O)CCl)CC2)n1 (centres undefined)
CC(C)NC(=O)c1csc(-c2oc(CNCc3ccccn3)nc2-c2ccc(F)cc2)n1
CC(=O)C(=O)N1CCC(c2[nH]nc(-c3ccc(F)cc3)c2-c2nc(C(=O)NC(C)C)cs2)CC1
COCc1onc(-c2ccc(Cl)cc2)c1-c1ccn(C(=O)NC(C)C)n1
Cc1nc(-c2ccc(F)cc2)c(-c2nc(C(=O)NCc3ccccc3)cs2)s1
CC(C)NC(=O)c1csc(-c2oc(CN3CCN(C(=O)c4ccc(Oc5ccccc5)cc4)CC3)nc2-c2ccc(F)cc2)n1
Cc1ccc(C(=O)N2CCN(Cc3nc(-c4ccc(F)cc4)c(-c4nc(C(=O)NC(C)C)cs4)o3)CC2)c(C)c1
CC(C)NC(=O)c1csc(-c2oc(CNC(=O)c3ccc4cc(O)ccc4c3)nc2-c2ccc(F)cc2)n1
C#CCNC(=O)c1csc(-c2c(-c3ccc(F)cc3)n[nH]c2C2CCN(C(=O)CO)CC2)n1
CC(C)NC(=O)c1csc(-c2oc(CNC(=O)C=Cc3ccccc3)nc2-c2ccc(F)cc2)n1
CC(C)NC(=O)c1csc(-c2oc(CNC(=O)C(O)CCl)nc2-c2ccc(F)cc2)n1 (centres undefined)
CC(C)NC(=O)c1csc(-c2oc(CNC(=O)c3cccc(Cl)c3Cl)nc2-c2ccc(F)cc2)n1
CCCCOc1ccc(C(=O)N2CCN(Cc3nc(-c4ccc(F)cc4)c(-c4nc(C(=O)NC(C)C)cs4)o3)CC2)cc1
CC(C)NC(=O)c1csc(-c2oc(CNC(=O)c3cc(Cl)c(O)c(Cl)c3)nc2-c2ccc(F)cc2)n1
